Source: patent publication US8975417B2, “Pyrazolopyrrolidine derivatives and their use in the treatment of disease” (Novartis AG, priority 2013, dated 2015)

What was measured:
His-Brd4(44-477) = His-Brd4(44-477) (Homo sapiens (Human), UniProt O60885); experiment: TR-FRET in-vitro binding assay for BRD4; conditions: biochemical
How it was run: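 Eight-point dilution series tested against in-house His-BRD2(60-472), BRD3(20-477) or BRD4(44-477) (45 nM in dispensed solution) binding acetyl-histone H4 (AcK5,8,12,16; 60 nM in dispensed solution). Incubation 35 min at 30 °C, pH 7.5 HEPES buffer; detection by TR-FRET using Eu-anti-His6 and streptavidin-allophycocyanin.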

THP-1 cells = experiment: Cell growth inhibition assay (CellTiter-Glo), THP-1; assay type: cell-based; conditions: Homo sapiens, read-out: THP-1 TGI
How it was run: (§1)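 CTG luminescence (cellular ATP) after compound treatment; values background- and day 0-corrected, vehicle (0.1% DMSO) = 100%, medium only = −100%. Dose range: 3-fold dilutions from 10 μM. IC50/TGI by 4-parameter fit.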

K-562 cells = experiment: Cell growth inhibition assay (CellTiter-Glo), K-562; assay type: cell-based, human; conditions: Homo sapiens, K562, read-out: K-562 TGI
How it was run: as §1

With Cc1nn(C2CC2)c2c1[C@@H](c1ccc(Cl)cc1)N(c1cc(Cl)c(=O)n(C)c1)C2=O [Example 51, (R)-5-(5-chloro-1-methyl-6-oxo-1,6-dihydropyridin-3-yl)-4-(4-chlorophenyl)-1-cyclopropyl-3-methyl-4,5-dihydropyrrolo[3,4-c]pyrazol-6(1H)-one] the IC50 (His-Brd4(44-477)) was 20 nM, the IC (total growth inhibition) (THP-1 cells) was 0.126 µM and the IC (total growth inhibition) (K-562 cells) was > 10 µM.
CCc1nn(CCO)c2c1C(c1ccc(Cl)cc1)N(c1cc(C)c(=O)n(C)c1)C2=O (stereo not drawn) [Example 78, 4-(4-chlorophenyl)-5-(1,5-dimethyl-6-oxo-1,6-dihydropyridin-3-yl)-3-ethyl-1-(2-hydroxyethyl)-4,5-dihydropyrrolo[3,4-c]pyrazol-6(1H)-one] was tested, and the IC50 (His-Brd4(44-477)) was 63 nM, the IC (total growth inhibition) (THP-1 cells) was 0.223 µM and the IC (total growth inhibition) (K-562 cells) was > 10 µM.
CCOC(=O)N1CC(n2nc(C)c3c2C(=O)N(c2cc(C)c4nnc(C)n4c2)C3c2ccc(Cl)cc2)C1 (stereo not drawn) [Example 156, Ethyl 3-(4-(4-chlorophenyl)-5-(3,8-dimethyl-[1,2,4]triazolo[4,3-a]pyridin-6-yl)-3-methyl-6-oxo-5,6-dihydropyrrolo[3,4-c]pyrazol-1(4H)-yl)azetidine-1-carboxylate] was tested, and the IC50 (His-Brd4(44-477)) was 49 nM, the IC (total growth inhibition) (THP-1 cells) was 0.143 µM and the IC (total growth inhibition) (K-562 cells) was > 10 µM.
With Cc1nn(C2CC2)c2c1C(c1ccc(Cl)cc1)N(c1cc(N(C)C(=O)OC(C)(C)C)c3nnc(C)n3n1)C2=O (stereo not drawn) [Example 112, tert-butyl (6-(4-(4-chlorophenyl)-1-cyclopropyl-3-methyl-6-oxopyrrolo[3,4-c]pyrazol-5(1H,4H,6H)-yl)-3-methyl-[1,2,4]triazolo[4,3-b]pyridazin-8-yl)(methyl)carbamate] the IC50 (His-Brd4(44-477)) was > 37000 nM, the IC (total growth inhibition) (THP-1 cells) was 3.17 µM and the IC (total growth inhibition) (K-562 cells) was > 10 µM.
Cc1nn(-c2ccnn2C)c2c1[C@H](c1ccc(Cl)cc1)N(c1cc(C)c3nnc(C)n3c1)C2=O [Example 124, (S)-4-(4-chlorophenyl)-5-(3,8-dimethyl-[1,2,4]triazolo[4,3-a]pyridin-6-yl)-3-methyl-1-(1-methyl-1H-pyrazol-5-yl)-4,5-dihydropyrrolo[3,4-c]pyrazol-6(1H)-one] was tested, and the IC50 (His-Brd4(44-477)) was 25000 nM, the IC (total growth inhibition) (THP-1 cells) was 1.54 µM and the IC (total growth inhibition) (K-562 cells) was > 10 µM.
In the case of Cc1nn(C2CC2)c2c1C(c1ccc(C(F)(F)F)cc1)N(c1cc(C)c(=O)n(C)c1)C2=O (stereo not drawn) [Example 97, 1-cyclopropyl-5-(1,5-dimethyl-6-oxo-1,6-dihydropyridin-3-yl)-3-methyl-4-(4-(trifluoromethyl)phenyl)-4,5-dihydropyrrolo[3,4-c]pyrazol-6(1H)-one], the IC50 (His-Brd4(44-477)) is reported as 89 nM, the IC (total growth inhibition) (THP-1 cells) is reported as 0.274 µM and the IC (total growth inhibition) (K-562 cells) is reported as > 10 µM.
CCOc1c2c(nn1C)C(=O)N(c1cc(C)c(=O)n(C)c1)C2c1ccc(Cl)cc1 (stereo not drawn) [Example 76, 4-(4-chlorophenyl)-5-(1,5-dimethyl-6-oxo-1,6-dihydropyridin-3-yl)-3-ethoxy-2-methyl-4,5-dihydropyrrolo[3,4-c]pyrazol-6(2H)-one] was tested, and the IC50 (His-Brd4(44-477)) was 120 nM, the IC (total growth inhibition) (THP-1 cells) was 0.3 µM and the IC (total growth inhibition) (K-562 cells) was > 10 µM.
With Cc1cc(N2C(=O)c3c(c(CO)nn3C3CC3)C2c2ccc(Cl)cc2)cn2c(C)nnc12 (stereo not drawn) [Example 131, 4-(4-chlorophenyl)-1-cyclopropyl-5-(3,8-dimethyl-[1,2,4]triazolo[4,3-a]pyridin-6-yl)-3-(hydroxymethyl)-4,5-dihydropyrrolo[3,4-c]pyrazol-6(1H)-one] the IC50 (His-Brd4(44-477)) was 36 nM, the IC (total growth inhibition) (THP-1 cells) was 0.119 µM and the IC (total growth inhibition) (K-562 cells) was > 10 µM.
CCc1nn(C2CC2)c2c1[C@@H](c1ccc(Cl)cc1)N(c1cc(C)c3nnc(C)n3c1)C2=O [Example 107, (R)-4-(4-chlorophenyl)-1-cyclopropyl-5-(3,8-dimethyl-[1,2,4]triazolo[4,3-a]pyridin-6-yl)-3-ethyl-4,5-dihydropyrrolo[3,4-c]pyrazol-6(1H)-one] was tested, and the IC50 (His-Brd4(44-477)) was < 11 nM, the IC (total growth inhibition) (THP-1 cells) was 0.0199 µM and the IC (total growth inhibition) (K-562 cells) was > 10 µM.
